The source of these data is patent US20180318311A1, “TRICYCLIC 2-QUINOLINONES AS ANTIBACTERIALS” (priority 2017, published 2018).

Values after ≈ are worked out from the molar mass of the structure shown.

Assay type in all cases: cell-based
Assay [1] relates to S. aureus NB01006-AVR005, gyrA (S84L), grlA (580F) and grlB (E471K). The experiment in a line: microbe, parasite or virus in culture. The note with it: Staphylococcus aureus, 20 h, read-out: Antibacterial activity (MIC) NB01006-AVR005. How it is done: (§1) Bacterial isolates were cultivated from −80° C. frozen stocks by overnight passages at 35° C. in ambient air on Mueller-Hinton agar plates (MHA, Becton Dickinson, Franklin Lakes, NB) with the exception of S. pneumoniae which was grown overnight at 35° C. in the presence of 5% CO2 on blood agar plates (tryptic soy agar with 5% sheep blood (Thermo Scientific, Waltham, Mass.) . The following quality control and wild type strains were obtained from the American Type Culture Collection (ATCC; Rockville, Md.) and are coded in the Novartis strain collection as indicated: E. coli ATCC 25922 (NB27001), E. faecalis ATCC 29212 (NB04001), S. aureus ATCC 49951 (NB01006) and S. pneumoniae ATCC […] (NB07001). […] P. aeruginosa NB52019, obtained from Queen's University (Kingston, Ontario, Canada), is the wild-type PAO1 strain.
(§2) Minimal Inhibitory Concentrations (MIC) were determined by the broth microdilution method in accordance with Clinical and Laboratories Institute (CLSI) guidelines. In brief, fresh bacterial overnight cultures were re-suspended in sterile saline, adjusted to a 0.5 McFarland turbidity standard and then diluted to yield a final inoculum of approximately 5×10^5 colony-forming units (CFU)/mL. All bacterial suspensions were prepared in cation adjusted Mueller-Hinton Broth (CAMHB; Becton Dickinson, Franklin Lakes, N.J.;) with the exception of S. pneumoniae which was prepared in CAMHB supplemented with 5% lysed horse blood (Hardy Diagnostics, Santa Maria, Calif.). Two-fold serial dilutions of compounds were prepared in 100% dimethyl sulfoxide (DMSO) at 100-fold the highest final assay concentration; the resulting dilution series of compounds were diluted 1:10 with sterile water. Ten μL of the drug dilution series in 10% DMSO was transferred to microtiter wells and 90 μL of bacterial suspension was inoculated into the wells. All inoculated microdilution trays were incubated in ambient air at 35° C. for 20 hours. Following incubation, assay plates were read in a microtiter plate reader at 600 nm and visually inspected to confirm the MIC endpoint well with the OD value. The lowest concentration of the compound that prevented visible growth was recorded as the MIC (in μg/mL).

Assay [2] relates to E. coli ATCC 25922 (NB27001). Nature of the assay: MIC by broth microdilution, E. coli NB27001. Particulars: Escherichia coli, ATCC25922, CAMHB, 35° C., 20 hours, read-out: Antibacterial activity (MIC) NB27001. How it is done:
as §1, §2
A general note: Broth dilution looks for growth in wells or tubes with falling amounts of substance.

Assay [3] deals with P. aeruginosa NB52019, wild-type PAO1 strain. Nature of the assay: MIC by broth microdilution, P. aeruginosa NB52019. Particulars: Pseudomonas aeruginosa, CAMHB, 35° C., 20 hours, read-out: Antibacterial activity (MIC) NB52019. How it is done: as §1, §2
Assay [4] relates to E. faecalis ATCC 29212 (NB04001). Nature of the assay: MIC by broth microdilution, E. faecalis NB04001. Particulars: Enterococcus faecalis, ATCC29212, CAMHB, 35° C., 20 hours, read-out: Antibacterial activity (MIC) NB04001. The protocol:
as §1, §2

Assay [5] has as its system S. pneumoniae ATCC 25922 (NB07001). Nature of the assay: MIC by broth microdilution, S. pneumoniae NB07001. Particulars: Streptococcus pneumoniae, ATCC25922, 20 h, read-out: Antibacterial activity (MIC) NB07001. The protocol: as §1, §2
In assay [6] the test system is S. aureus NB01080 fluoroquinolone-resistant clinical isolate. Nature of the assay: MIC by broth microdilution, S. aureus NB01080. The note with it: Staphylococcus aureus, CAMHB, 35° C., 20 hours, read-out: Antibacterial activity (MIC) NB01080. The protocol: as §1, §2
Assay [7] deals with S. aureus ATCC 49951 (NB01006). Nature of the assay: MIC by broth microdilution, S. aureus NB01006. Particulars: Staphylococcus aureus, ATCC49951, CAMHB, 35° C., 20 hours, read-out: Antibacterial activity (MIC) NB01006. How it is done: as §1, §2

Take `C[C@H]1COc2c(N3CC4C(C3)C4N(C)C)c(F)cc3cc(C(=O)O)c(=O)n1c23` (mixture of isomers) [Example 1.69, (3S)-10-(6-(dimethylamino)-3-azabicyclo[3.1.0]hexan-3-yl)-9-fluoro-3-methyl-5-oxo-2,3-dihydro-5H-[1,4]oxazino[2,3,4-ij]quinoline-6-carboxylic acid]: the MIC was over 32 µg/mL in assay [1]; over 32 µg/mL in assay [2]; over 32 µg/mL in assay [3]; over 32 µg/mL in assay [4]; 1 to 32 µg/mL in assay [5]; over 32 µg/mL in assay [6]. Moreover, the MIC in assay [7] lay in the range of 1 to 32 µg/mL.

In the case of `C[C@H]1COc2c(N3CCCC4(CCN(C)C4)C3)c(F)cc3cc(C(=O)O)c(=O)n1c23` (mixture of isomers) [Example 1.70, (3S)-9-fluoro-3-methyl-10-(2-methyl-2,7-diazaspiro[4.5]decan-7-yl)-5-oxo-2,3-dihydro-5H-[1,4]oxazino[2,3,4-ij]quinoline-6-carboxylic acid], the MIC in assay [1] is over 32 µg/mL; in assay [2], over 32 µg/mL; in assay [3] it was over 32 µg/mL; in assay [4], over 32 µg/mL; in assay [5], 1 to 32 µg/mL; in assay [6] it was over 32 µg/mL. Moreover, the MIC in assay [7] fell in the range of 1 to 32 µg/mL.

For the compound `C[C@H]1COc2c(N3CCCC4(CCNC4)C3)c(F)cc3cc(C(=O)O)c(=O)n1c23` (mixture of isomers) [Example 1.71, (3S)-9-fluoro-3-methyl-5-oxo-10-(2,7-diazaspiro[4.5]decan-7-yl)-2,3-dihydro-5H-[1,4]oxazino[2,3,4-ij]quinoline-6-carboxylic acid], the MIC in assay [1], in assay [2], in assay [3], in assay [4], in assay [5] and in assay [6] was over 32 µg/mL each time. The MIC in assay [7] is over 32 µg/mL.

`C[C@H]1COc2c(N3CC4CCC(N)C4C3)c(F)cc3cc(C(=O)O)c(=O)n1c23` (single isomer, unassigned) [Example 1.28]: the MIC in assay [1] was over 32 µg/mL; in assay [2], over 32 µg/mL; in assay [3] it was over 32 µg/mL; in assay [4], 1 to 32 µg/mL (≈ 2.58 to 82.6 µM); in assay [5], under 1 µg/mL; in assay [6], over 32 µg/mL. In addition, in assay [7], the MIC is 1 to 32 µg/mL (≈ 2.58 to 82.6 µM).

For `C[C@H]1COc2c(N3CCC4CCNCC4C3)c(F)cc3cc(C(=O)O)c(=O)n1c23` (single isomer, unassigned) [Example 1.29], the MIC in assay [1], in assay [2], in assay [3], in assay [4], in assay [5] and in assay [6] was over 32 µg/mL throughout. The MIC in assay [7] was over 32 µg/mL.

As to `C[C@H]1COc2c(N3CCC4(CCC4N)CC3)c(F)cc3cc(C(=O)O)c(=O)n1c23` (single isomer, unassigned) [Example 1.32], the MIC in assay [1] was over 32 µg/mL; in assay [2] it was over 32 µg/mL; in assay [3] it was over 32 µg/mL; in assay [4], 1 to 32 µg/mL (≈ 2.49 to 79.7 µM); in assay [5], 1 to 32 µg/mL (≈ 2.49 to 79.7 µM); in assay [6], over 32 µg/mL. Also, in assay [7], the MIC lay within 1 to 32 µg/mL (≈ 2.49 to 79.7 µM).

`C[C@H]1COc2c(N3CCC4(CC3)CC4N)c(F)cc3cc(C(=O)O)c(=O)n1c23` (single isomer, unassigned) [Example 1.33]: the MIC was over 32 µg/mL in assay [1]; 1 to 32 µg/mL (≈ 2.58 to 82.6 µM) in assay [2]; over 32 µg/mL in assay [3]; 1 to 32 µg/mL (≈ 2.58 to 82.6 µM) in assay [4]; 1 to 32 µg/mL (≈ 2.58 to 82.6 µM) in assay [5]; 1 to 32 µg/mL (≈ 2.58 to 82.6 µM) in assay [6]. The MIC in assay [7] lay in the range of 1 to 32 µg/mL (≈ 2.58 to 82.6 µM).

On to `C[C@H]1COc2c(N3CC4CNC4C3)c(F)cc3cc(C(=O)O)c(=O)n1c23` (single isomer, unassigned) [Example 1.39], for which the MIC in assay [1], in assay [2], in assay [3], in assay [4], in assay [5] and in assay [6] was over 32 µg/mL in each case. Moreover, in assay [7], the MIC was over 32 µg/mL.

On to `C[C@H]1COc2c(N3CCC4(CC4N)C3)c(F)cc3cc(C(=O)O)c(=O)n1c23` (single isomer, unassigned) [Example 1.42], for which the MIC in assay [1] was 1 to 32 µg/mL (≈ 2.68 to 85.7 µM); in assay [2] it was under 1 µg/mL; in assay [3], 1 to 32 µg/mL (≈ 2.68 to 85.7 µM); in assay [4], 1 to 32 µg/mL (≈ 2.68 to 85.7 µM); in assay [5], under 1 µg/mL; in assay [6] it was 1 to 32 µg/mL (≈ 2.68 to 85.7 µM). In assay [7], the MIC is under 1 µg/mL.

Turning to `C[C@H]1COc2c(N3CCC(C(C)(C)N)C3)c(F)cc3cc(C(=O)O)c(=O)n1c23` (single isomer, unassigned) [Example 1.43], the MIC in assay [1] was 1 to 32 µg/mL (≈ 2.57 to 82.2 µM); in assay [2] it was 1 to 32 µg/mL (≈ 2.57 to 82.2 µM); in assay [3] it was over 32 µg/mL; in assay [4], under 1 µg/mL; in assay [5], under 1 µg/mL; in assay [6] it was 1 to 32 µg/mL (≈ 2.57 to 82.2 µM). Also, in assay [7], the MIC was under 1 µg/mL.

Regarding `CCC(N)C1CCN(c2c(F)cc3cc(C(=O)O)c(=O)n4c3c2OC[C@@H]4C)C1` (single isomer, unassigned) [Example 1.45], the MIC in assay [1] was 1 to 32 µg/mL (≈ 2.57 to 82.2 µM); in assay [2] it was 1 to 32 µg/mL (≈ 2.57 to 82.2 µM); in assay [3], over 32 µg/mL; in assay [4], under 1 µg/mL; in assay [5], under 1 µg/mL; in assay [6], under 1 µg/mL. Further, the MIC in assay [7] is under 1 µg/mL.

With `C[C@H]1COc2c(N3CCC(C4(N)CCC4)C3)c(F)cc3cc(C(=O)O)c(=O)n1c23` (single isomer, unassigned) [Example 1.46], the MIC in assay [1] is 1 to 32 µg/mL (≈ 2.49 to 79.7 µM); in assay [2], 1 to 32 µg/mL (≈ 2.49 to 79.7 µM); in assay [3] it was over 32 µg/mL; in assay [4], under 1 µg/mL; in assay [5], under 1 µg/mL; in assay [6] it was under 1 µg/mL. Also, the MIC in assay [7] was under 1 µg/mL.

On to `CC(N)C1(F)CCN(c2c(F)cc3cc(C(=O)O)c(=O)n4c3c2OC[C@@H]4C)C1` (single isomer, unassigned) [Example 1.47], for which the MIC in assay [1] was 1 to 32 µg/mL (≈ 2.54 to 81.3 µM); in assay [2], 1 to 32 µg/mL (≈ 2.54 to 81.3 µM); in assay [3] it was over 32 µg/mL; in assay [4] it was 1 to 32 µg/mL (≈ 2.54 to 81.3 µM); in assay [5], under 1 µg/mL; in assay [6] it was 1 to 32 µg/mL (≈ 2.54 to 81.3 µM). Besides, in assay [7], the MIC was under 1 µg/mL.

Turning to `C[C@H]1COc2c(N3CC(CN)C4(CCOCC4)C3)c(F)cc3cc(C(=O)O)c(=O)n1c23` (single isomer, unassigned) [Example 1.48], the MIC in assay [1] is 1 to 32 µg/mL (≈ 2.32 to 74.2 µM); in assay [2] it was over 32 µg/mL; in assay [3], over 32 µg/mL; in assay [4], under 1 µg/mL; in assay [5], under 1 µg/mL; in assay [6], 1 to 32 µg/mL (≈ 2.32 to 74.2 µM). The MIC in assay [7] was under 1 µg/mL.

As for `C[C@H]1COc2c(N3CC(CN)C4(CCC4)C3)c(F)cc3cc(C(=O)O)c(=O)n1c23` (single isomer, unassigned) [Example 1.49], the MIC in assay [1] is 1 to 32 µg/mL (≈ 2.49 to 79.7 µM); in assay [2], 1 to 32 µg/mL (≈ 2.49 to 79.7 µM); in assay [3], 1 to 32 µg/mL (≈ 2.49 to 79.7 µM); in assay [4], under 1 µg/mL; in assay [5], under 1 µg/mL; in assay [6] it was 1 to 32 µg/mL (≈ 2.49 to 79.7 µM). In assay [7], the MIC is under 1 µg/mL.

For the compound `C[C@H]1COc2c(N3CC4CCCC4(CN)C3)c(F)cc3cc(C(=O)O)c(=O)n1c23` (single isomer, unassigned) [Example 1.50], the MIC in assay [1] was 1 to 32 µg/mL (≈ 2.49 to 79.7 µM); in assay [2], over 32 µg/mL; in assay [3], over 32 µg/mL; in assay [4] it was 1 to 32 µg/mL (≈ 2.49 to 79.7 µM); in assay [5] it was under 1 µg/mL; in assay [6], 1 to 32 µg/mL (≈ 2.49 to 79.7 µM). In assay [7], the MIC is under 1 µg/mL.

With `C[C@H]1COc2c(N3CC4CC(N)C4C3)c(F)cc3cc(C(=O)O)c(=O)n1c23` (single isomer, unassigned) [Example 1.62], the MIC in assay [1], in assay [2], in assay [3], in assay [4], in assay [5] and in assay [6] was over 32 µg/mL each time. Moreover, in assay [7], the MIC fell in the range of 1 to 32 µg/mL (≈ 2.68 to 85.7 µM).
